{"source": "patent US20200038513A1", "about": "“MODULATORS OF FAK PROTEOLYSIS AND ASSOCIATED METHODS OF USE” (ARVINAS OPERATIONS, INC., priority 2018, published 2020)", "key": {"[1]": {"assay": "Pharmacokinetics of intraperitoneal or intravenous injection in CD1 mice", "type": "in vivo", "conditions": "for Conc. (ng/mL) Mouse 1 / Conc. (ng/mL) Mouse 2 / Conc. (ng/mL) Mouse 3 / concentration at 0.25 h / concentration at 0.5 h / concentration at 1 h / concentration at 2 h / concentration at 4 h / concentration at 8 h / concentration at 0.033 h / concentration at 0.083 h: CD1 mice plasma; for concentration at 0.25 h / concentration at 0.5 h / concentration at 1 h / concentration at 2 h / concentration at 4 h / concentration at 8 h / AUC(0-t) / half-life / concentration at 0.033 h / concentration at 0.083 h: male, CD1, mouse, plasma", "outline": "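Male CD1 mice, 6-8 weeks old, 3 per group, dosed IV (5 s injection; 10% HP-b-CD, 40 mM sodium acetate, 40 mM NaCl, pH 4.5) or IP (5% EtOH, 5% Solutol HS15 in D5W). Serial dorsal metatarsal vein blood, terminal heart puncture; plasma analysed by LC/MS/MS after acetonitrile precipitation, calibration 1-2000 ng/mL.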"}, "PPB": {"assay": "PPB", "type": "in vitro ADME", "conditions": "plasma"}, "[2]": {"conditions": "ip, 10 mg/kg, IP 10 mg/kg, read-out: Conc. (ng/mL) Mouse 1"}, "[3]": {"conditions": "ip, 10 mg/kg, IP 10 mg/kg, read-out: Conc. (ng/mL) Mouse 2"}, "[4]": {"conditions": "ip, 10 mg/kg, IP 10 mg/kg, read-out: Conc. (ng/mL) Mouse 3"}, "[5]": {"conditions": "ip, 10 mg/kg, IP 10 mg/kg, read-out: Mean"}, "[6]": {"conditions": "iv, 1 mg/kg, IV 1.0 mg/kg, read-out: Conc. (ng/mL) Mouse 1"}, "[7]": {"conditions": "iv, 1 mg/kg, IV 1.0 mg/kg, read-out: Conc. (ng/mL) Mouse 2"}, "[8]": {"conditions": "iv, 1 mg/kg, IV 1.0 mg/kg, read-out: Conc. (ng/mL) Mouse 3"}, "[9]": {"conditions": "iv, 1 mg/kg, IV 1.0 mg/kg, read-out: Mean"}}, "note": "Like-named read-outs stand apart in the source and are kept apart here.", "data": [{"compound": "Cc1ncsc1-c1ccc(CNC(=O)[C@@H]2C[C@@H](O)CN2C(=O)[C@@H](NC(=O)COCCCOc2ccc(Nc3ncc(C(F)(F)F)c(NCc4cccc(N(C)S(C)(=O)=O)c4)n3)cc2)C(C)(C)C)cc1", "note": "[Compound 101, (2S,4R)-1-((S)-3,3-dimethyl-2-(2-(3-(4-((4-((3-(N-methylmethylsulfonamido)benzyl)amino)-5-(trifluoromethyl)pyrimidin-2-yl)amino)phenoxy)propoxy)acetamido)butanoyl)-4-hydroxy-N-(4-(4-methylthiazol-5-yl)benzyl)pyrrolidine-2-carboxamide]", "values": [{"measurement": "Conc. (ng/mL) Mouse 1", "setting": "[1]; IP 10 mg/kg, 24 h", "result": "BLOQ"}, {"measurement": "Conc. (ng/mL) Mouse 2", "setting": "[1]; IP 10 mg/kg, 24 h", "result": "BLOQ"}, {"measurement": "Conc. (ng/mL) Mouse 3", "setting": "[1]; IP 10 mg/kg, 24 h", "result": "BLOQ"}, {"measurement": "Conc. (ng/mL) Mouse 1", "setting": "[1]; IV 1.0 mg/kg, 4 h", "result": "BLOQ"}, {"measurement": "Conc. (ng/mL) Mouse 3", "setting": "[1]; IV 1.0 mg/kg, 4 h", "result": "BLOQ"}, {"measurement": "Conc. (ng/mL) Mouse 1", "setting": "[1]; IV 1.0 mg/kg, 8 h", "result": "BLOQ"}, {"measurement": "Conc. (ng/mL) Mouse 2", "setting": "[1]; IV 1.0 mg/kg, 8 h", "result": "BLOQ"}, {"measurement": "Conc. (ng/mL) Mouse 3", "setting": "[1]; IV 1.0 mg/kg, 8 h", "result": "BLOQ"}, {"measurement": "Conc. (ng/mL) Mouse 1", "setting": "[1]; IV 1.0 mg/kg, 24 h", "result": "BLOQ"}, {"measurement": "Conc. (ng/mL) Mouse 2", "setting": "[1]; IV 1.0 mg/kg, 24 h", "result": "BLOQ"}, {"measurement": "Conc. (ng/mL) Mouse 3", "setting": "[1]; IV 1.0 mg/kg, 24 h", "result": "BLOQ"}, {"measurement": "concentration at 0.25 h", "setting": "[1]; [2]", "result": 800, "unit": "ng/mL"}, {"measurement": "concentration at 0.25 h", "setting": "[1]; [3]", "result": 407, "unit": "ng/mL"}, {"measurement": "concentration at 0.25 h", "setting": "[1]; [4]", "result": 271, "unit": "ng/mL"}, {"measurement": "concentration at 0.25 h", "setting": "[1]; [5]", "result": 493, "unit": "ng/mL"}, {"measurement": "concentration at 0.5 h", "setting": "[1]; [2]", "result": 860, "unit": "ng/mL"}, {"measurement": "concentration at 0.5 h", "setting": "[1]; [3]", "result": 523, "unit": "ng/mL"}, {"measurement": "concentration at 0.5 h", "setting": "[1]; [4]", "result": 335, "unit": "ng/mL"}, {"measurement": "concentration at 0.5 h", "setting": "[1]; [5]", "result": 573, "unit": "ng/mL"}, {"measurement": "concentration at 1 h", "setting": "[1]; [2]", "result": 1040, "unit": "ng/mL"}, {"measurement": "concentration at 1 h", "setting": "[1]; [3]", "result": 1520, "unit": "ng/mL"}, {"measurement": "concentration at 1 h", "setting": "[1]; [4]", "result": 1780, "unit": "ng/mL"}, {"measurement": "concentration at 1 h", "setting": "[1]; [5]", "result": 1450, "unit": "ng/mL"}, {"measurement": "concentration at 2 h", "setting": "[1]; [2]", "result": 1630, "unit": "ng/mL"}, {"measurement": "concentration at 2 h", "setting": "[1]; [3]", "result": 1590, "unit": "ng/mL"}, {"measurement": "concentration at 2 h", "setting": "[1]; [4]", "result": 1180, "unit": "ng/mL"}, {"measurement": "concentration at 2 h", "setting": "[1]; [5]", "result": 1470, "unit": "ng/mL"}, {"measurement": "concentration at 4 h", "setting": "[1]; ip, 10 mg/kg, IP 10 mg/kg, 4 h, read-out: Conc. (ng/mL) Mouse 1", "result": 378, "unit": "ng/mL"}, {"measurement": "concentration at 4 h", "setting": "[1]; ip, 10 mg/kg, IP 10 mg/kg, 4 h, read-out: Conc. (ng/mL) Mouse 2", "result": 1090, "unit": "ng/mL"}, {"measurement": "concentration at 4 h", "setting": "[1]; ip, 10 mg/kg, IP 10 mg/kg, 4 h, read-out: Conc. (ng/mL) Mouse 3", "result": 1250, "unit": "ng/mL"}, {"measurement": "concentration at 4 h", "setting": "[1]; ip, 10 mg/kg, IP 10 mg/kg, 4 h, read-out: Mean", "result": 906, "unit": "ng/mL"}, {"measurement": "concentration at 8 h", "setting": "[1]; ip, 10 mg/kg, IP 10 mg/kg, 8 h, read-out: Conc. (ng/mL) Mouse 1", "result": 24.1, "unit": "ng/mL"}, {"measurement": "concentration at 8 h", "setting": "[1]; ip, 10 mg/kg, IP 10 mg/kg, 8 h, read-out: Conc. (ng/mL) Mouse 2", "result": 145, "unit": "ng/mL"}, {"measurement": "concentration at 8 h", "setting": "[1]; ip, 10 mg/kg, IP 10 mg/kg, 8 h, read-out: Conc. (ng/mL) Mouse 3", "result": 77.1, "unit": "ng/mL"}, {"measurement": "concentration at 8 h", "setting": "[1]; ip, 10 mg/kg, IP 10 mg/kg, 8 h, read-out: Mean", "result": 82, "unit": "ng/mL"}, {"measurement": "AUC(0-t)", "setting": "[1]; ip, 10 mg/kg, read-out: AUClast (h * ng/mL) IP", "result": 6500, "unit": "ng·h/mL"}, {"measurement": "half-life", "setting": "[1]; ip, 10 mg/kg, read-out: T ½ (h) IP (converted)", "result": 1.22, "unit": "h"}, {"measurement": "concentration at 0.033 h", "setting": "[1]; [6]", "result": 2100, "unit": "ng/mL"}, {"measurement": "concentration at 0.033 h", "setting": "[1]; [7]", "result": 1800, "unit": "ng/mL"}, {"measurement": "concentration at 0.033 h", "setting": "[1]; [8]", "result": 2310, "unit": "ng/mL"}, {"measurement": "concentration at 0.033 h", "setting": "[1]; [9]", "result": 2070, "unit": "ng/mL"}, {"measurement": "concentration at 0.083 h", "setting": "[1]; [6]", "result": 356, "unit": "ng/mL"}, {"measurement": "concentration at 0.083 h", "setting": "[1]; [7]", "result": 303, "unit": "ng/mL"}, {"measurement": "concentration at 0.083 h", "setting": "[1]; [8]", "result": 432, "unit": "ng/mL"}, {"measurement": "concentration at 0.083 h", "setting": "[1]; [9]", "result": 364, "unit": "ng/mL"}, {"measurement": "concentration at 0.25 h", "setting": "[1]; [6]", "result": 50.1, "unit": "ng/mL"}, {"measurement": "concentration at 0.25 h", "setting": "[1]; [7]", "result": 47.7, "unit": "ng/mL"}, {"measurement": "concentration at 0.25 h", "setting": "[1]; [8]", "result": 47, "unit": "ng/mL"}, {"measurement": "concentration at 0.25 h", "setting": "[1]; [9]", "result": 48.3, "unit": "ng/mL"}, {"measurement": "concentration at 0.5 h", "setting": "[1]; [6]", "result": 20.9, "unit": "ng/mL"}, {"measurement": "concentration at 0.5 h", "setting": "[1]; [7]", "result": 28.6, "unit": "ng/mL"}, {"measurement": "concentration at 0.5 h", "setting": "[1]; [8]", "result": 27.7, "unit": "ng/mL"}, {"measurement": "concentration at 0.5 h", "setting": "[1]; [9]", "result": 25.7, "unit": "ng/mL"}, {"measurement": "concentration at 1 h", "setting": "[1]; [6]", "result": 8.68, "unit": "ng/mL"}, {"measurement": "concentration at 1 h", "setting": "[1]; [7]", "result": 11.6, "unit": "ng/mL"}, {"measurement": "concentration at 1 h", "setting": "[1]; [8]", "result": 9.52, "unit": "ng/mL"}, {"measurement": "concentration at 1 h", "setting": "[1]; [9]", "result": 9.9, "unit": "ng/mL"}, {"measurement": "concentration at 2 h", "setting": "[1]; [6]", "result": 5.32, "unit": "ng/mL"}, {"measurement": "concentration at 2 h", "setting": "[1]; [7]", "result": 7.86, "unit": "ng/mL"}, {"measurement": "concentration at 2 h", "setting": "[1]; [8]", "result": 5.45, "unit": "ng/mL"}, {"measurement": "concentration at 2 h", "setting": "[1]; [9]", "result": 6.21, "unit": "ng/mL"}, {"measurement": "concentration at 4 h", "setting": "[1]; iv, 1 mg/kg, IV 1.0 mg/kg, 4 h, read-out: Conc. (ng/mL) Mouse 2", "result": 4.59, "unit": "ng/mL"}, {"measurement": "AUC(0-t)", "setting": "[1]; iv, 1 mg/kg, read-out: AUClast (h * ng/mL) IV", "result": 268, "unit": "ng·h/mL"}, {"measurement": "half-life", "setting": "[1]; iv, 1 mg/kg, read-out: T ½ (h) IV (converted)", "result": 1.26, "unit": "h"}, {"measurement": "fraction unbound", "setting": "PPB", "result": 0.0065}]}]}
